Source: PubChem BioAssay (NCI)
“And” between values parts separate entries of the source, which are not always exact repeats. Identical values can stand only once.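 Where inhibition never reached the appropriate level, the endpoint shown equals the highest concentration tested. Otherwise, values were interpolated linearly from a five-concentration, 48-hour dose response in 96-well plates. Here, GI50 denotes the concentration required for 50% inhibition of growth. Definition used: TGI = concentration required for complete inhibition of growth.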

Assays:
Test in all cases: NCI-60 cell line screen, 48 h
IGROV1 ovarian = system: IGROV1 ovarian
A549 NSCLC = system: A549 NSCLC
UACC-257 melanoma = system: UACC-257 melanoma
SF-539 CNS = system: SF-539 CNS
LOX IMVI melanoma = system: LOX IMVI melanoma
OVCAR-4 ovarian = system: OVCAR-4 ovarian
HOP-62 NSCLC = system: HOP-62 NSCLC
OVCAR-3 ovarian = system: OVCAR-3 ovarian
786-0 renal = system: 786-0 renal

Structure (SMILES)	TGI (IGROV1 ovarian)	TGI (A549 NSCLC)	TGI (UACC-257 melanoma)	TGI (SF-539 CNS)	TGI (LOX IMVI melanoma)	TGI (OVCAR-4 ovarian)	TGI (HOP-62 NSCLC)	TGI (OVCAR-3 ovarian)	TGI (786-0 renal)	GI50 (IGROV1 ovarian)	GI50 (A549 NSCLC)	GI50 (UACC-257 melanoma)	GI50 (SF-539 CNS)	GI50 (LOX IMVI melanoma)	GI50 (OVCAR-4 ovarian)	GI50 (HOP-62 NSCLC)	GI50 (OVCAR-3 ovarian)	GI50 (786-0 renal)
CN(C(=O)C12C3C4C1C1C2C3C41C(=O)C(C)(C)C)C(C)(C)C (configuration not stated)	> 100 µM	> 100 µM	> 100 µM	> 100 µM	> 100 µM	> 100 µM	> 100 µM	> 100 µM	> 100 µM	–	–	–	–	–	–	–	–	–
CCOC(=O)NC(=O)c1cn(C2OC(COC(=O)CCCCCCCCC(=O)OCC3OC(n4cc(C(=O)NC(=O)OCC)c(=O)[nH]c4=O)C(O)C3O)C(O)C2O)c(=O)[nH]c1=O (configuration not stated)	> 100 µM	> 100 µM	> 100 µM	> 100 µM	> 100 µM	> 100 µM	> 100 µM	> 100 µM	> 100 µM	–	–	–	–	–	–	–	–	–
CC(C)CC(=O)[O-].CC(C)CC(=O)[O-].N.N.N.N.[Co+3].[O-][Cl+3]([O-])([O-])[O-]	> 100 µM	> 100 µM	> 100 µM	> 100 µM	> 100 µM	> 100 µM	> 100 µM	> 100 µM	> 100 µM	> 100 µM	> 100 µM	> 100 µM	> 100 µM	> 100 µM	> 100 µM	> 100 µM	> 100 µM	> 100 µM
N#CC1(Cc2ccc(N)cc2)c2ccccc2C=CN1C(=O)c1ccccc1 (configuration not stated)	> 100 µM	> 100 µM	> 100 µM	> 100 µM	> 100 µM	–	> 100 µM	> 100 µM	> 100 µM	–	–	–	–	–	–	–	–	–
N#C/C(=C/c1ccsc1)C(=O)c1ccccc1	–	> 100 µM	> 100 µM	> 100 µM	> 100 µM	> 100 µM	> 100 µM	> 100 µM	> 100 µM	–	–	–	–	–	–	–	–	–
COc1ccc(OC)c(NC(=O)C(=O)C(C(C)=O)c2nc3ccc(Cl)cc3[nH]c2=O)c1 (configuration not stated)	> 50 µM	> 50 µM	> 50 µM	> 50 µM	> 50 µM	> 50 µM	> 50 µM	> 50 µM	> 50 µM	–	–	–	–	–	–	–	–	–
COC(=O)CC(=O)C[P+](c1ccccc1)(c1ccccc1)c1ccccc1	> 218 µM	> 218 µM	> 218 µM	> 218 µM	> 218 µM	–	> 218 µM	> 218 µM	> 218 µM	–	–	–	–	–	–	–	–	–
O=C(N/N=C/c1ccccc1O)c1cccc([N+](=O)[O-])c1	79.6 µM	> 100 µM	> 60.6 µM	> 82.1 µM	> 81.4 µM	> 100 µM	–	6.73 µM	> 100 µM	–	–	–	–	–	–	–	–	–
Clc1ccc(C2N3CCCCC3[C@@H]3c4[nH]c5ccccc5c4CCN23)cc1 (some centres not stated)	> 100 µM	> 100 µM	> 100 µM	> 100 µM	–	> 100 µM	> 100 µM	> 100 µM	> 100 µM	–	–	–	–	–	–	–	–	–
Cc1ccc(-c2c3c([nH]c(=O)c2C#N)-c2cc(F)ccc2OC3)cc1	> 100 µM	> 100 µM	> 100 µM	> 100 µM	> 100 µM	> 100 µM	–	81.9 µM	> 100 µM	52.3 µM	55 µM	> 100 µM	> 100 µM	> 100 µM	> 100 µM	–	25.4 µM	64.4 µM
CCCCN(CCCC)C(=O)C(=O)C(C#N)c1ccc(C)cc1 (configuration not stated)	> 100 µM	> 100 µM	> 100 µM	> 100 µM	> 100 µM	> 100 µM	> 100 µM	> 100 µM	> 100 µM	–	–	–	–	–	–	–	–	–
COc1ccc2ccc3c(c2c1)CN1CCc2cc(OC)c(OC)cc2C1C3 (configuration not stated)	> 100 µM	–	> 100 µM	> 100 µM	> 100 µM	> 100 µM	> 100 µM	> 100 µM	> 100 µM	–	–	–	–	–	–	–	–	–
Cc1ccc(S(=O)(=O)C(CC(=O)N2CCCC2)C(=O)c2ccccc2)cc1 (configuration not stated)	> 100 µM	> 100 µM	> 100 µM	> 100 µM	> 100 µM	> 100 µM	> 100 µM	> 100 µM	> 100 µM	–	–	–	–	–	–	–	–	–
O=C1OCc2c1cc1ccc(O)c(OC3OC(CO)C(O)C(O)C3O)c1c2-c1ccc2c(c1)OCO2 (configuration not stated)	> 100 µM	> 100 µM	> 100 µM	> 100 µM	> 100 µM	> 100 µM	> 100 µM	> 100 µM	> 100 µM	–	–	37.9 µM	–	–	56.2 µM	–	64.6 µM	–
COC(=O)C1=C(C(=O)OC)C2C=CC1C1C(Cl)=C(Cl)C21 (configuration not stated)	> 100 µM	> 100 µM	> 100 µM	> 100 µM	> 100 µM	> 100 µM	> 100 µM	> 100 µM	> 100 µM	–	–	–	–	–	–	–	–	–
OCCC1(O)CCC(O)CC1 (configuration not stated)	> 100 µM	> 100 µM	> 100 µM	> 100 µM	> 100 µM	> 100 µM	> 100 µM	> 100 µM	> 100 µM	–	–	–	–	–	–	–	–	–

Structure (SMILES)	TGI (IGROV1 ovarian)	TGI (A549 NSCLC)	TGI (UACC-257 melanoma)	TGI (SF-539 CNS)	TGI (LOX IMVI melanoma)	TGI (OVCAR-4 ovarian)	TGI (HOP-62 NSCLC)	TGI (OVCAR-3 ovarian)	TGI (786-0 renal)	GI50 (IGROV1 ovarian)	GI50 (A549 NSCLC)	GI50 (UACC-257 melanoma)	GI50 (SF-539 CNS)	GI50 (LOX IMVI melanoma)	GI50 (OVCAR-4 ovarian)	GI50 (HOP-62 NSCLC)	GI50 (OVCAR-3 ovarian)	GI50 (786-0 renal)
COC1C(CN[N+](=O)CC2OC3OC(C)(C)OC3C2OC)OC2OC(C)(C)OC21 (configuration not stated)	> 100 µM	> 100 µM	> 100 µM	> 100 µM	> 100 µM	> 100 µM	> 100 µM	> 100 µM	> 100 µM	–	–	–	–	–	–	–	–	–
CC1=C(C(=O)Nc2ccc([N+](=O)[O-])cc2)C(c2ccc(N(C)C)cc2)C(C(=O)Nc2ccc([N+](=O)[O-])cc2)=C(C)N1	61.9 µM	> 100 µM	35.6 µM	50.5 µM	23.5 µM	89.5 µM	27.5 µM	34.5 µM	57.6 µM	–	–	–	–	–	–	–	–	–
COc1cc(C2c3cc4c(cc3C(NCC(O)CO)C3COC(=O)[C@H]23)OCO4)cc(OC)c1OC (some centres not stated)	> 100 µM	–	> 100 µM	0.344 µM	> 100 µM	–	0.676 µM	–	> 100 µM	–	–	–	–	–	–	–	–	–
Cc1nc2c(nc1Cl)nc(Oc1ccc(Cl)cc1)c1ccccc12	> 100 µM	> 100 µM	> 100 µM	> 100 µM	> 100 µM	> 100 µM	84.1 µM	> 100 µM	38.3 µM	–	–	–	–	–	–	–	–	–
COC(=O)C(=O)C(C(=O)C=C(C)C)C(=O)C(=O)Nc1cc(C(F)(F)F)ccc1Cl (configuration not stated)	> 100 µM	> 100 µM	> 100 µM	> 100 µM	> 100 µM	> 100 µM	> 100 µM	> 100 µM	> 100 µM	–	–	–	–	–	–	–	–	–
CCOc1ccc2c(c1)[n+]([O-])c(S(=O)(=O)c1ccc(C)cc1)c(N)[n+]2[O-]	> 100 µM	> 100 µM	> 100 µM	> 100 µM	–	> 100 µM	> 100 µM	> 100 µM	> 100 µM	–	–	–	–	–	–	–	–	–
CC1(C)CC(/C=C2/OC(=O)c3ccccc32)=C(C#N)C(=O)O1	> 100 µM	> 100 µM	> 100 µM	> 100 µM	> 100 µM	> 100 µM	> 100 µM	> 100 µM	> 100 µM	–	–	–	–	–	–	–	–	–
N#CC(C(=N/O)/C(=N/O)C(C#N)c1ccc(Cl)cc1)c1ccc(Cl)cc1 (configuration not stated)	> 100 µM	> 100 µM	> 100 µM	> 100 µM	> 100 µM	> 100 µM	> 100 µM	> 100 µM	> 100 µM	–	–	–	–	–	–	–	–	–
CCCCNC1=C(C(=O)OCC)C(=O)CO1	> 100 µM	> 100 µM	> 100 µM	> 100 µM	> 100 µM	> 100 µM	> 100 µM	> 100 µM	> 100 µM	–	–	–	–	–	–	–	–	–
Cc1cc2c(cc1C)[n+](=O)c(C(=O)CC(=O)C(=O)Nc1c(C(C)C)cccc1C(C)C)c(C)n2[O-]	> 100 µM	> 100 µM	> 100 µM	> 100 µM	> 100 µM	> 100 µM	> 100 µM	> 100 µM	> 100 µM	–	–	–	–	–	–	–	–	–
CCOC(=O)/C=C(/C(=O)OCC)n1cc(Cl)c(=O)n(CC(=O)OCC)c1=O	9.25 µM and 37.1 µM	18.1 µM and 67 µM	25 µM and 57.9 µM	9.69 µM and 32.7 µM	8.17 µM and 34.5 µM	14 µM and > 100 µM	25 µM and 91.3 µM	14.3 µM and 28.8 µM	2.48 µM and 7.5 µM	17.8 µM	23.4 µM	20.7 µM	16.9 µM	15.2 µM	34.2 µM	30.8 µM	10.5 µM	2.78 µM
N=C1CSC2=NC3=C(CCC/C3=C\c3ccccc3)C(c3ccccc3)N12 (configuration not stated)	20.1 µM	19.1 µM	30 µM	20 µM	4.96 µM	–	25.6 µM	8.24 µM	18.3 µM	–	–	–	–	–	–	–	–	–
COc1ccc2[nH]c3c(C)c4c(c(C)c3c2c1)CN(C)CC4	35.9 µM	33.9 µM	32.7 µM	29.8 µM	27.6 µM	34.8 µM	32.4 µM	30.3 µM	27.8 µM	–	–	–	–	–	–	–	–	–
COc1ccccc1C1C(C(=O)Nc2ccccc2)=C(C)NC(C)=C1C(=O)Nc1ccccc1	> 100 µM	–	> 100 µM	> 100 µM	> 100 µM	> 100 µM	> 100 µM	> 100 µM	> 100 µM	–	–	–	–	–	–	–	–	–
COc1ccc2cc1Oc1ccc(cc1)CC1c3cc(c(OC)cc3CCN1C)Oc1c3c(cc4c1C(C2)N(C)CC4)OCO3 (configuration not stated)	28.8 µM	30.6 µM	–	6.03 µM	4.72 µM	12.7 µM	29.8 µM	30 µM	25.3 µM	–	–	–	–	–	–	–	–	–
O=C1C=CC(=Nc2ccc3c(c2)C(Br)c2ccccc2-3)O1 (configuration not stated)	> 100 µM	> 100 µM	> 100 µM	> 100 µM	> 100 µM	–	> 100 µM	> 100 µM	> 100 µM	–	–	–	–	–	–	–	–	–
